In publication PMC11192711, “Automated radiosynthesis and preclinical evaluation of two new PSMA-617 derivatives radiolabelled via [^18F]AlF^2+ method” (EJNMMI Radiopharmacy and Chemistry, 2024):

Columns and labels:
[1] = tested on: LNCaP tumour-bearing NSG mice; assay: PET/CT in vivo biodistribution and tumour uptake in subcutaneous LNCaP prostate cancer xenograft model; settings: n = 4; for Bone (SUV mean) / Brain (SUV mean) / Colon (SUV mean) / Gall bladder (SUV mean) / Heart (SUV mean) / Kidney (SUV mean) / Liver (SUV mean) / Lung (SUV mean) / Muscle (SUV mean) / Salivary gland (SUV mean) / Small instestine (SUV mean): LNCaP NSG male mice, i.v., PET/CT; for ratio between tumour and muscle (tumour SUV max/muscle SUV mean) / uptake in the tumour expressed as SUV max: LNCaP tumour, NSG mice
Method: The uptake of [^18F]F-PSMA-1007 and [^18F]F-PSMA-617-NODA ([^18F]1) was compared in vivo in a xenograft model of human prostate cancer obtained using LNCaP cells which are PSMA positive, as confirmed by real time PCR-analysis (Additional file 1: S69A). LNCaP tumour-bearing NSG mice were injected i.v. with either [^18F]F-PSMA-1007 or [^18F]F-PSMA-617-NODA (~ 3.8 MBq/mouse, ~ 20 pmol for [^18F]F-PSMA-1007 and ~ 50 pmol [^18F]1). Radiotracer uptake was assessed after 10, 60 and 120 min post injection by whole-body PET/CT acquisitions.
Total body biodistribution of [^18F]F-PSMA-1007, [^18F]F-PSMA-617-NODA and [^18F]F-PSMA-617-RESCA was evaluated in vivo using imaging PET/CT. [^18F]F-PSMA-617-NODA uptake was compared to that of the [^18F]F-PSMA-1007 in a PSMA positive prostate tumour xenograft model (LNCaP). [^18F]F-PSMA-617-NODA and [^18F]F-PSMA-617-RESCA uptake were also evaluated using an orthotopic glioma model (Gli36ΔEGFR).
Animal experiments were carried out in compliance with institutional guidelines for the care and the use of experimental animals, which have been authorized by the Italian Ministry of Health (n° 378/2019-PR and 817/2021-PR). The animals were housed at constant temperature (23 °C) and relative humidity (40%) under a regular light/dark cycle with food and water available ad libitum. Seven to eight weeks old male NSG mice (Charles River Laboratories Italia s.r.l., Italy) were subcutaneously inoculated in the right flank with 5 × 10^6 of PSMA‐positive human prostate cancer cells (LNCaP) suspended in matrigel (1: 1, total volume 200 ul). The growth tumour was monitored periodically with calliper and tumour volume was calculated using the following formula: […]
When the tumour volume was about 230.8 ± 60.3 mm^3 (approximately 15 days after tumour cells inoculation), 4 animals performed an in vivo biodistribution of [^18F]F-PSMA-1007 and [^18F]F-PSMA-617-NODA, on successive but non-consecutive days, using PET/CT.
Mice were injected into a tail vein with 3.8 ± 0.1 MBq of [^18F]F-PSMA-1007, 4.0 ± 0.2 MBq of [^18F]F-PSMA-617-NODA ([^18F]1) and 3.8 ± 0.1 MBq of [^18F]F-PSMA-617-RESCA ([^18F]2), respectively.
Total body PET/CT acquisitions were performed using PET/CT tomographs dedicated to small animals, X-ß-CUBE (Molecubes, Gent, Belgium) after 10, 60 and 120 min from tracer injection. Each acquisition lasted 30 min and mice were maintained anesthetized (4% isoflurane in induction and 2% in maintenance in air) during acquisition.
Image quantification analysis was performed with PMOD 4.105 software (Zurich, Switzerland). Volumes of interest (VOIs) were drawn on peripheral organs (tumour, thoracic muscle, heart, liver, kidney, salivary glands, lung, small intestine, colon, bone, gall bladder) and on the healthy brain using CT images. For the glioma model, PET/CT images were co-registered to MRI images and two different VOIs were defined: (1) a control VOI covering the healthy left striatum (volume 4 mm^3) was drawn on the axial MR images, adjusted on the other imaging planes and then copied on the PET images of each mouse; (2) a second glioma-covering VOI was drawn in the tumour-affected brain hemisphere and centered on mice lesions.
For quantification, Standardized Uptake Value (SUV) was calculated according to the formula:
SUV = organ concentration activity [MBq/g]/(injected activity [MBq]/animal weight [g]).
The data were expressed as standardized-uptake-values (SUVmean and SUVmax) and as tumour-to-muscle (T/M) and tumour-to-blood (T/B) ratio in PCa model and as tumour-to-contralateral (T/Cl) ratio in glioma model.

[2] = Stability in human plasma (HPLC, radio-TLC, pellet/supernatant activity); format: in vitro ADME; settings: for Stability in human plasma: 37 °C, up to 4 h, HPLC and radio-TLC; for Pellet activity / Supernatant activity: ACN precipitation
Method: Stability in plasma was evaluated mixing aliquots of [^18F]1 or [^18F]2 solutions (10 MBq for 2 h incubation and 20 MBq for 4 h incubation samples) with 200 µL of human serum. The mixtures were incubated at 37 °C. Aliquots were taken at 2 h and 4 h. Plasma pellet was precipitated with 200 µL acetonitrile and centrifuged (13,500 rpm, 10 min). The supernatant was removed, and the activity of the supernatant solution and pellet was measured using a dose calibrator (VIK-202 Comecer). The supernatant solution was analyzed injecting in RP-HPLC (diluted 1:5 in water) and Radio-TLC as above described.

[3] = [18F]1, 2 h incubation in plasma, total activity incubated 3.6 MBq
[4] = [18F]1, 4 h incubation in plasma, total activity incubated 3.89 MBq

O=C(O)CCC(NC(=O)NC(CCCCNC(=O)C(Cc1ccc2ccccc2c1)NC(=O)C1CCC(CNC(=O)CCCN2CCN(CC(=O)O)CCN(CC(=O)O)CC2)CC1)C(=O)O)C(=O)O.[18F][Al] [[^18F]F-PSMA-617-NODA, (((S)-5-((S)-2-((1R,4S)-4-((4-(4,7-bis(carboxymethyl)-1,4,7-triazonan-1-yl)butanamido)methyl)cyclohexane-1-carboxamido)-3-(naphthalen-2-yl)propanamido)-1-carboxypentyl)carbamoyl)-L-glutamic acid [^18F] aluminium fluoride]
Bone (SUV mean) ([1]; 10 min p.i.): 0.20 ± 0.12 | Brain (SUV mean) ([1]; 10 min p.i.): 0.05 ± 0.003 | Colon (SUV mean) ([1]; 10 min p.i.): 0.30 ± 0.08 | Gall bladder (SUV mean) ([1]; 10 min p.i.): 0.27 ± 0.05 | Heart (SUV mean) ([1]; 10 min p.i.): 0.30 ± 0.03 | Kidney (SUV mean) ([1]; 10 min p.i.): 8.50 ± 1.40 | Liver (SUV mean) ([1]; 10 min p.i.): 0.22 ± 0.02 | Lung (SUV mean) ([1]; 10 min p.i.): 0.31 ± 0.04 | Muscle (SUV mean) ([1]; 10 min p.i.): 0.15 ± 0.05 | Salivary gland (SUV mean) ([1]; 10 min p.i.): 0.49 ± 0.05 | Small instestine (SUV mean) ([1]; 10 min p.i.): 0.23 ± 0.05 | Bone (SUV mean) ([1]; 60 min p.i.): 0.23 ± 0.11 | Brain (SUV mean) ([1]; 60 min p.i.): 0.03 ± 0.01 | Colon (SUV mean) ([1]; 60 min p.i.): 0.17 ± 0.02 | Gall bladder (SUV mean) ([1]; 60 min p.i.): 0.14 ± 0.07 | Heart (SUV mean) ([1]; 60 min p.i.): 0.09 ± 0.02 | Kidney (SUV mean) ([1]; 60 min p.i.): 6.39 ± 2.14 | Liver (SUV mean) ([1]; 60 min p.i.): 0.10 ± 0.02 | Lung (SUV mean) ([1]; 60 min p.i.): 0.14 ± 0.01 | Muscle (SUV mean) ([1]; 60 min p.i.): 0.04 ± 0.01 | Salivary gland (SUV mean) ([1]; 60 min p.i.): 0.18 ± 0.08 | Small instestine (SUV mean) ([1]; 60 min p.i.): 0.16 ± 0.05 | Bone (SUV mean) ([1]; 120 min p.i.): 0.25 ± 0.12 | Brain (SUV mean) ([1]; 120 min p.i.): 0.02 ± 0.01 | Colon (SUV mean) ([1]; 120 min p.i.): 0.13 ± 0.06 | Gall bladder (SUV mean) ([1]; 120 min p.i.): 0.03 ± 0.02 | Heart (SUV mean) ([1]; 120 min p.i.): 0.03 ± 0.01 | Kidney (SUV mean) ([1]; 120 min p.i.): 2.43 ± 1.24 | Liver (SUV mean) ([1]; 120 min p.i.): 0.04 ± 0.01 | Lung (SUV mean) ([1]; 120 min p.i.): 0.04 ± 0.01 | Muscle (SUV mean) ([1]; 120 min p.i.): 0.02 ± 0.01 | Salivary gland (SUV mean) ([1]; 120 min p.i.): 0.04 ± 0.02 | Small instestine (SUV mean) ([1]; 120 min p.i.): 0.06 ± 0.03 | ratio between tumour and muscle (tumour SUV max/muscle SUV mean) ([1]; 60 min p.i.): 30.29 ± 10.46 | uptake in the tumour expressed as SUV max ([1]; 60 min p.i.): 1.11 ± 0.24 | ratio between tumour and muscle (tumour SUV max/muscle SUV mean) ([1]; 120 min p.i.): 83.53 ± 48.71 | uptake in the tumour expressed as SUV max ([1]; 120 min p.i.): 0.94 ± 0.12 | Stability in human plasma ([2]; listed as [^18F]1): stable | Stability in human plasma ([2]; listed as [^18F]PSMA-617-NODA): no substantial release of [^18F]AlF^2+ | Pellet activity [2, 3]: 0.4 MBq | Supernatant activity [2, 3]: 3.2 MBq | Pellet activity [2, 4]: 0.45 MBq | Supernatant activity [2, 4]: 3.44 MBq | protein uptake ([2]; stability tests in human plasma): ~ 11%
